Results: patent US20250113823A1, “Arthropod Control Compositions” (priority 2022, published 2025)
Read-outs that look alike come from different tables or passages of the source.

System: Aedes aegypti
Test: Warm Body assay, mosquito landings on treated warm body
Type: in vivo
Conditions: for pest or weed control at 1 % / pest or weed control at 0.04 %: read-out: repellence; for pest or weed control at 0.0016 %: read-out: reduce the number of mosquito landings
Procedure: The arthropod controlling effect according to the present invention is determined on mosquitoes using an adapted Warm Body assay as defined in Kröber T, Kessler S, Frei J, Bourquin M, Guerin PM. An in vitro assay for testing mosquito controlling compounds employing a warm body and carbon dioxide as a behavioral activator. J Am Mosq Control Assoc. 2010; 26: 381-386. Further information is provided in the accompanying examples
The controlling effect, repellence & spatial repellence, according to the present invention is determined by testing the Warm Body assay against the yellow fever mosquito, Aedes aegypti Rockefeller strain. […] Observations of controlling efficacy were made on host-seeking females of uniform age, 5 to 10 days old selected as mentioned in the publication mentioned hereinabove. Tested hungry females had access to 10% sugar solution but were not blood-fed. Further information is provided in the accompanying examples.
The published protocol has been adapted in not manually counting the landing mosquitoes but automatically using an automatic counting software, the switch from Anopheles gambiae to A. aegypti led to a decrease of mosquitoes' number placed in the tested cage due to the size difference (i.e. 30 mosquitoes instead of 50) and to an increase of lighting as A. aegypti is a diurnal mosquitoes (i.e. 150 lux instead of 4 lux). Further information is provided in the accompanying examples. […]
The controlling effect according to the present invention was assessed using an adapted Warm Body assay as defined in Kröber T, Kessler S, Frei J, Bourquin M, Guerin P M. 2010. J Am Mosq Control Assoc. 26: 381-386. In this in-vitro assay the number of mosquito landing on a warm body, simulating an attractive host treated with the tested stimuli, was measured in order to assess the repellence effect.
The published protocol has been adapted as the switch from Anopheles gambiae to Aedes aegypti led to a decrease of mosquitoes placed in the tested cage due to the size difference (i.e. 30 mosquitoes instead of 50) and to an increase of lighting since A. aegypti is a diurnal mosquitoes (i.e. 150 lux instead of 4 lux).
On the sandblasted glass Petri dish covering the warm body (28.3 cm^2), 100 μL of the compounds diluted at different concentrations in ethanol was applied. The number of mosquito landing on the warm body was counted for each stimulus and pure ethanol (solvent) as control.

[1] = Aedes aegypti, 0.016 mg/mL (Table 3), read-out: Percentage of repellence of mosquitoes Aedes aegypti landing on the warm body
[2] = Aedes aegypti, 0.4 mg/mL (Table 3), read-out: Percentage of repellence of mosquitoes Aedes aegypti landing on the warm body
[3] = Aedes aegypti, 10 mg/mL (Table 3), read-out: Percentage of repellence of mosquitoes Aedes aegypti landing on the warm body
[4] = Aedes aegypti, highest tested concentration, 1% (Table 3)
[5] = highest tested concentration, 1% (Table 3)
[6] = Aedes aegypti, intermediate concentration of 0.04% (Table 3)
[7] = Aedes aegypti, read-out: Percentage of repellence of mosquitoes Aedes aegypti landing on the warm body

COc1cc(C=NCCN=Cc2cc(OC)c(OC)c(OC)c2)cc(OC)c1OC [compound 1980, 1-(3,4,5-trimethoxyphenyl)-N-[2-[(3,4,5-trimethoxyphenyl)methylideneamino]ethyl]methanimine] gave a pest or weed control at 3.2 µg/mL (Aedes aegypti, 0.0032 mg/mL (Table 1), read-out: Percentage of repellence of mosquitoes Aedes aegypti landing on the warm body) of 53%, a pest or weed control at 7.1 µg/mL (Aedes aegypti, 0.0071 mg/mL (Table 1), read-out: Percentage of repellence of mosquitoes Aedes aegypti landing on the warm body) of 57% and a pest or weed control at 16 µg/mL (Aedes aegypti, 0.016 mg/mL (Table 1), read-out: Percentage of repellence of mosquitoes Aedes aegypti landing on the warm body) of 34%. It also gave a pest or weed control at 35.7 µg/mL (Aedes aegypti, 0.0357 mg/mL (Table 1), read-out: Percentage of repellence of mosquitoes Aedes aegypti landing on the warm body) of 32%, a pest or weed control at 53 µg/mL (Aedes aegypti, 0.053 mg/mL (Table 1), read-out: Percentage of repellence of mosquitoes Aedes aegypti landing on the warm body) of 77% and a pest or weed control at 80 µg/mL (Aedes aegypti, 0.08 mg/mL (Table 1), read-out: Percentage of repellence of mosquitoes Aedes aegypti landing on the warm body) of 92%. The pest or weed control at 119 µg/mL (Aedes aegypti, 0.119 mg/mL (Table 1), read-out: Percentage of repellence of mosquitoes Aedes aegypti landing on the warm body) was 75%, the pest or weed control at 178 µg/mL (Aedes aegypti, 0.178 mg/mL (Table 1), read-out: Percentage of repellence of mosquitoes Aedes aegypti landing on the warm body) was 67% and the pest or weed control at 267 µg/mL (Aedes aegypti, 0.267 mg/mL (Table 1), read-out: Percentage of repellence of mosquitoes Aedes aegypti landing on the warm body) was 84%. The pest or weed control at 400 µg/mL (Aedes aegypti, 0.4 mg/mL (Table 1), read-out: Percentage of repellence of mosquitoes Aedes aegypti landing on the warm body) was 81%, the pest or weed control at 598 µg/mL (Aedes aegypti, 0.598 mg/mL (Table 1), read-out: Percentage of repellence of mosquitoes Aedes aegypti landing on the warm body) was 88% and the pest or weed control at 890 µg/mL (Aedes aegypti, 0.89 mg/mL (Table 1), read-out: Percentage of repellence of mosquitoes Aedes aegypti landing on the warm body) was 63%. It also gave a pest or weed control at 2000 µg/mL (Aedes aegypti, 2 mg/mL (Table 1), read-out: Percentage of repellence of mosquitoes Aedes aegypti landing on the warm body) of 86%, a pest or weed control at 4470 µg/mL (Aedes aegypti, 4.47 mg/mL (Table 1), read-out: Percentage of repellence of mosquitoes Aedes aegypti landing on the warm body) of 71% and a pest or weed control at 10000 µg/mL (Aedes aegypti, 10 mg/mL (Table 1), read-out: Percentage of repellence of mosquitoes Aedes aegypti landing on the warm body) of 96%.
For CCc1cc(OC)c(O)c(OC)c1 [compound 2240, 4-ethyl-2,6-dimethoxyphenol], the pest or weed control at 16 µg/mL [1] was 0%, the pest or weed control at 400 µg/mL [2] was 47% and the pest or weed control at 10000 µg/mL [3] was 94%. The pest or weed control at 1 % [4] was > 90%.
With COc1cccc(OC)c1O [compound 2244, 2,6-dimethoxyphenol] the pest or weed control at 16 µg/mL [1] was 44%, the pest or weed control at 400 µg/mL [2] was 59% and the pest or weed control at 10000 µg/mL [3] was 85%.
With COc1cc(C=CCOC(C)=O)cc(OC)c1OC [compound 2247, 3-(3,4,5-trimethoxyphenyl)-2-acetate] the “Percentage of repellence of mosquitoes Aedes aegypti landing on the warm body” value (“Percentage” below) (0.016 mg/mL (Table 3)) was 39%, the “Percentage” value (0.4 mg/mL (Table 3)) was 44% and the “Percentage” value (10 mg/mL (Table 3)) was 98%.
In the case of COc1cc(C)cc(OC)c1OC [compound 2250, 1,2,3-trimethoxy-5-methybenzene], the “Percentage” value (0.016 mg/mL (Table 3)) is reported as 21%, the “Percentage” value (0.4 mg/mL (Table 3)) is reported as 57% and the “Percentage” value (10 mg/mL (Table 3)) is reported as 100%. The “mosquito landing within the two minutes of experiments” value [5] was “protect the attractive stimulus for any mosquito landing”.
With COc1cccc(CO)c1OC [compound 2263, (2,3-dimethoxyphenyl)methanol] the pest or weed control at 16 µg/mL [1] was 52%, the pest or weed control at 400 µg/mL [2] was 96% and the pest or weed control at 10000 µg/mL [3] was 97%. For the same compound, the pest or weed control at 1 % [4] was > 90%, the pest or weed control at 0.04 % [6] was > 75% and the pest or weed control at 0.0016 % (Aedes aegypti, lowest concentration of 0.0016% (Table 3)) was > 50%.
Work on COc1ccc(C#N)c(OC)c1OC [compound 2266, 2,3,4-trimethoxybenzonitrile] yielded a pest or weed control at 16 µg/mL [1] of 48%, a pest or weed control at 400 µg/mL [2] of 83% and a pest or weed control at 10000 µg/mL [3] of 89%. For the same compound, the pest or weed control at 0.04 % [6] was > 75%.
For COc1cc(C=O)cc(OC)c1OC [compound 2268, 3,4,5-trimethoxybenzaldehyde], the pest or weed control at 16 µg/mL [7] was 59%, the pest or weed control at 400 µg/mL [7] was 88% and the pest or weed control at 10000 µg/mL [7] was 95%. The pest or weed control at 0.0016 % (Aedes aegypti) was > 50%, the pest or weed control at 0.04 % (Aedes aegypti) was > 75% and the pest or weed control at 1 % (Aedes aegypti) was > 90%.
COc1ccc(C(C)=O)c(OC)c1OC [compound 2269, 1-(2,3,4-trimethoxyphenyl)ethanone] gave a pest or weed control at 16 µg/mL [1] of 18%, a pest or weed control at 400 µg/mL [2] of 70% and a pest or weed control at 10000 µg/mL [3] of 100%. For the same compound, the pest or weed control at 1 % [4] was > 90% and the “mosquito landing within the two minutes of experiments” value [5] was “protect the attractive stimulus for any mosquito landing”.
